Laboratory results from ChEMBL document CHEMBL4507319 (2021).

What was measured:
Conditions in all cases: Compound concentration 1.0 uM
[1] = molecular target: CDK3/cyclin E (Homo sapiens) (UniProt P24864+O96020+Q00526); test: CDK3/cyclinE(h) Eurofins kinase panel; assay type: protein-complex assay
[2] = molecular target: Ephrin type-A receptor 7 (Homo sapiens) (UniProt Q15375); test: EphA7(h) Eurofins kinase panel
[3] = molecular target: T1, Serine/threonine-protein kinase ICK (Homo sapiens) (UniProt Q9UPZ9); test: ICK(h) Eurofins kinase panel
T1 sequence (whole entry): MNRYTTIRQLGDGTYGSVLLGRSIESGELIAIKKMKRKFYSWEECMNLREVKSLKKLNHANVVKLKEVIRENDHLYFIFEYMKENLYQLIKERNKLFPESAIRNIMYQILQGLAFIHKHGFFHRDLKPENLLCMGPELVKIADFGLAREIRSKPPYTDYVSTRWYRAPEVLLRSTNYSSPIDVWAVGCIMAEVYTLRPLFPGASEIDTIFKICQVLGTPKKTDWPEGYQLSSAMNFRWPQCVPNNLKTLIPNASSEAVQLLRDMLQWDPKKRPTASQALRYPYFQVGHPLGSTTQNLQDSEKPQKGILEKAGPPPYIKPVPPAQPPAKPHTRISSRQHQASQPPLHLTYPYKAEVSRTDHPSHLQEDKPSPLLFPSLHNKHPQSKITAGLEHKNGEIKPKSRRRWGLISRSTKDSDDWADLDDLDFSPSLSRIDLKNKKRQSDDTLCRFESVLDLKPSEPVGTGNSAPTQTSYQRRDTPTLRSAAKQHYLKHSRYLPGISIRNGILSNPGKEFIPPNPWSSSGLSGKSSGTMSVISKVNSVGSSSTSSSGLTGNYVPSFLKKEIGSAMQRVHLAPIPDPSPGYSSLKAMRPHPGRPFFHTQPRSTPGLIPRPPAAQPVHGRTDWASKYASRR

[4] = molecular target: Serine/threonine-protein kinase pim-2 (Homo sapiens) (UniProt Q9P1W9); test: Pim-2(h) Eurofins kinase panel
[5] = molecular target: T2, cGMP-dependent protein kinase 2 (Homo sapiens) (UniProt Q13237); test: PRKG2(h) Eurofins kinase panel
T2 sequence (whole entry): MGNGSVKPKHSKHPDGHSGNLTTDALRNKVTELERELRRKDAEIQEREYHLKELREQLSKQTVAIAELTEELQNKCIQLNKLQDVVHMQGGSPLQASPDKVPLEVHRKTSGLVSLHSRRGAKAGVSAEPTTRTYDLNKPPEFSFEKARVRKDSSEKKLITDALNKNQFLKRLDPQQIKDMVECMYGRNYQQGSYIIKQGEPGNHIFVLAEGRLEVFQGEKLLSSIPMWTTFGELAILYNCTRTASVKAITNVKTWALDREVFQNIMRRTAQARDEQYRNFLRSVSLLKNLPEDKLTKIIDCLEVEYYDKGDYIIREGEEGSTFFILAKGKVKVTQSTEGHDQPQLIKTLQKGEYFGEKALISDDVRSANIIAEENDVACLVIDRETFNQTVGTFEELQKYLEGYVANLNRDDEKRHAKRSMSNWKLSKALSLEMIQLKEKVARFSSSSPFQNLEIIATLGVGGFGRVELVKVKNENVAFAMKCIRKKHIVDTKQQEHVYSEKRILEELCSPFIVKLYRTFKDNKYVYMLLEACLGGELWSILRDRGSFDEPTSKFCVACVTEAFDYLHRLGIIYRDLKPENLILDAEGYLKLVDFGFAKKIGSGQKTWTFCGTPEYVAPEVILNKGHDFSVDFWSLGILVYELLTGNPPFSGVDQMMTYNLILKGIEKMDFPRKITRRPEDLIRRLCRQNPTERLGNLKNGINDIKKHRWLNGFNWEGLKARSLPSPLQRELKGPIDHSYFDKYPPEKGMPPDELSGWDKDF

[6] = molecular target: T3, Serine/threonine-protein kinase D1 (Homo sapiens) (UniProt Q15139); test: PKCmu (h) Eurofins kinase panel
T3 sequence (whole entry): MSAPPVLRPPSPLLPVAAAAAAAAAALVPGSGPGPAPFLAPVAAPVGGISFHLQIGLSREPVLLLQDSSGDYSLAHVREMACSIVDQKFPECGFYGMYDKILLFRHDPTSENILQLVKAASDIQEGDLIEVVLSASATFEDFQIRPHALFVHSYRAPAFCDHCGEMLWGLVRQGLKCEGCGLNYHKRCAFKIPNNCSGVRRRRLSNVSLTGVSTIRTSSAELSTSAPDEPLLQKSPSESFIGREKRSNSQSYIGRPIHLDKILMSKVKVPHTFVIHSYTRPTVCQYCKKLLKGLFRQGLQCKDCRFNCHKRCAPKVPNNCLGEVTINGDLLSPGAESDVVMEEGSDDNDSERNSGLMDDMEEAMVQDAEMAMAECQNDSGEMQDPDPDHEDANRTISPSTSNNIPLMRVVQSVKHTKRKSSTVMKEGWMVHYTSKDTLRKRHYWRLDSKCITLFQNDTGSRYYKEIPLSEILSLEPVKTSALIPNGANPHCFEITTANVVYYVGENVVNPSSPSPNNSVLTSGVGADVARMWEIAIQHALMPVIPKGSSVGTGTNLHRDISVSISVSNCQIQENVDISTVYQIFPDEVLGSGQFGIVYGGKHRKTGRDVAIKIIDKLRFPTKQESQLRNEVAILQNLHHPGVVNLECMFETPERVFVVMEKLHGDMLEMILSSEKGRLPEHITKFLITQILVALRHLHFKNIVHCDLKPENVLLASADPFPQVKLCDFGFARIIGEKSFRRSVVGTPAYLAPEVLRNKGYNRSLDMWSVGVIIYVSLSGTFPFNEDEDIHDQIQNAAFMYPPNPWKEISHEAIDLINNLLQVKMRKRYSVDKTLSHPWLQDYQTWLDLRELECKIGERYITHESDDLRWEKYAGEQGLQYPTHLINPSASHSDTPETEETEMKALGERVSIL

Measured: % residual kinase activity

Serine/threonine-protein kinase pim-2 (Homo sapiens), sequence (Q9P1W9 whole entry, looked up): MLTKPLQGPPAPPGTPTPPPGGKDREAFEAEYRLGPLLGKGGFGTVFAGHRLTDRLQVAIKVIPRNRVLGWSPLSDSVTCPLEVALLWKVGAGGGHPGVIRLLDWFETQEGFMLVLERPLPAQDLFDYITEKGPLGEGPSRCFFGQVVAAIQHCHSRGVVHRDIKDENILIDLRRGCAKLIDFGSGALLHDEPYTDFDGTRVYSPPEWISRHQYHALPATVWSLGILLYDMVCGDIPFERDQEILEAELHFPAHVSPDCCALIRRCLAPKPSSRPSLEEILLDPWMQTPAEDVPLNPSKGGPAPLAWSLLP
Ephrin type-A receptor 7 (Homo sapiens), sequence (Q15375 28-998 limits assumed): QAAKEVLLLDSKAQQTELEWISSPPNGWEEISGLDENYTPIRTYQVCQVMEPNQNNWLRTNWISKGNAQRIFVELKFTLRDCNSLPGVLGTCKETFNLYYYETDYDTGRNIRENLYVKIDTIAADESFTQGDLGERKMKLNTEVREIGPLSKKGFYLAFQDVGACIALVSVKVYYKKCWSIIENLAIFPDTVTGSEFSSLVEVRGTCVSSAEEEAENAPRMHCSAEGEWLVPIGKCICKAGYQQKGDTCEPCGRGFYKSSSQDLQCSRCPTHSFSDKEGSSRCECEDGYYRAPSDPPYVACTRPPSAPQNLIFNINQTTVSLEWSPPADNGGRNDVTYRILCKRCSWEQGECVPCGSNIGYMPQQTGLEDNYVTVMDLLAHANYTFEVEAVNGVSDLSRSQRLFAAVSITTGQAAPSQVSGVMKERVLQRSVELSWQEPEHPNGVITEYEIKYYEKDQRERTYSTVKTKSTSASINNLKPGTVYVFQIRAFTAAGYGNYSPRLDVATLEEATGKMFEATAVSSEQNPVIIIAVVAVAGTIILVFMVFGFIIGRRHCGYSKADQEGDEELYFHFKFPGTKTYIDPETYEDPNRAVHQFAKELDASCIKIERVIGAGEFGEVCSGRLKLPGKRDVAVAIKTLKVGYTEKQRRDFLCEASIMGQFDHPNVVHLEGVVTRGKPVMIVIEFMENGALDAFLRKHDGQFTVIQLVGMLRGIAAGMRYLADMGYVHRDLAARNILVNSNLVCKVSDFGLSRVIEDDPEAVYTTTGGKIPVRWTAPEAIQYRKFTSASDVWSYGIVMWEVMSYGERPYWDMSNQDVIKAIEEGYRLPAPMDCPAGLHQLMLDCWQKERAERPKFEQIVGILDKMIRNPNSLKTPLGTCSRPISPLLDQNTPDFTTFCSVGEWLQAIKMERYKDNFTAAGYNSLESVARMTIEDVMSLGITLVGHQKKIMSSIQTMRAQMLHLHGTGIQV
CDK3/cyclin E (Homo sapiens), sequence (O96020 whole entry, looked up): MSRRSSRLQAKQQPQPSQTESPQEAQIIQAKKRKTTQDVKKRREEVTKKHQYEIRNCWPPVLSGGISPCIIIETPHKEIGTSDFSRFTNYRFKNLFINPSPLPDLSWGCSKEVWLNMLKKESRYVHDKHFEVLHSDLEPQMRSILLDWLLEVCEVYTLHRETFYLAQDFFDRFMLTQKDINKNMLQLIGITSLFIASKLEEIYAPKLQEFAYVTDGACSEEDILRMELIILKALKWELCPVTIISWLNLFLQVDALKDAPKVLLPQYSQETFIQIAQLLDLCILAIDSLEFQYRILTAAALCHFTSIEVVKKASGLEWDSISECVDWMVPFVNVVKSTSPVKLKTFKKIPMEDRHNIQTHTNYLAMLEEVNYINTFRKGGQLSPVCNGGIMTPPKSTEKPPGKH
CDK3/cyclin E (Homo sapiens), sequence (P24864 whole entry, looked up): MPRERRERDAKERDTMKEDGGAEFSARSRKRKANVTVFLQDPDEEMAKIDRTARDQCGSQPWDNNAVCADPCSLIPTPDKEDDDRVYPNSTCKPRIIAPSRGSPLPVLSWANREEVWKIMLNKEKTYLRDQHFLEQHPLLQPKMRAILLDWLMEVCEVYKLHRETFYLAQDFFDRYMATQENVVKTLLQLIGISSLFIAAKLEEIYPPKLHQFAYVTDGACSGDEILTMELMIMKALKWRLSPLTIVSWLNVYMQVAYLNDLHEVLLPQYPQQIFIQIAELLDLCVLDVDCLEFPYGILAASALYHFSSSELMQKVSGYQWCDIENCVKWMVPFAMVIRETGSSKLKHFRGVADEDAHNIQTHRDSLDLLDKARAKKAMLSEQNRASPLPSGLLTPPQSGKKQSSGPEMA
CDK3/cyclin E (Homo sapiens), sequence (Q00526 whole entry, looked up): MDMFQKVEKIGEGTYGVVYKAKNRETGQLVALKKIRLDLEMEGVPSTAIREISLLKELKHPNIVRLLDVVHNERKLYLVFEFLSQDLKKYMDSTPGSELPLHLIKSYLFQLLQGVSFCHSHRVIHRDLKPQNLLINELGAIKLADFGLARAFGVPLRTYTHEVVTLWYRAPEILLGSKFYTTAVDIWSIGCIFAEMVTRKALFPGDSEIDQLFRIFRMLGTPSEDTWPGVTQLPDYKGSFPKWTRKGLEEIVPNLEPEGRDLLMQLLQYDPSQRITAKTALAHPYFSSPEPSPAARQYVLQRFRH

CCc1ccccc1C(=O)Nc1n[nH]c2c(C)c(F)c(C3C(C#N)=C(C)N(C)C(C)=C3C#N)cc12 [BAY-3827]
inactive: [1] 100% | [2] 91% | [3] 99% | [4] 102% | [5] 79% | [6] 96%
